The source made the active and inactive calls. No cut-off for these calls is given here.
What was measured:
[1] = tested on: Human immunodeficiency virus 1; experiment: Compound was evaluated for the inhibitory activity against HIV-1; IA - Inactive; type: functional, organism-based
oncovirus = experiment: Compound was evaluated for the antiviral activity against model oncovirus SV 40; A - Marginal activity was found; type: functional
[2] = tested on: Human immunodeficiency virus 1; experiment: Inhibitory concentration against HIV-1 was determined; type: functional, organism-based
[3] = tested on: Human immunodeficiency virus 1; experiment: Effective concentration against HIV-1 was determined; type: functional, organism-based

| SMILES | Activity [1] | Activity (oncovirus) | IC50 [2] | EC50 [3] |
| --- | --- | --- | --- | --- |
| Cc1cn(C2CC(N(O)Cc3ccccc3)C(CO)O2)c(=O)[nH]c1=O (stereo unspecified) | inactive | A | – | – |
| Cc1cn(C2CC3C(COCN3O)O2)c(=O)[nH]c1=O (stereo unspecified) | – | – | > 210000 nM | 2500 nM |
| Cc1cn(C2CC(N(C)O)C(CO)O2)c(=O)[nH]c1=O (stereo unspecified) | – | A | – | – |
| Cc1cn([C@H]2C[C@](C#N)(N(C)O)[C@@H](CO[Si](C)(C)C(C)(C)C)O2)c(=O)[nH]c1=O | – | A | – | – |
